Measurements published in US6677316B2, “Adenosine derivatives and methods of administration” (SmithKline Beecham Corporation, priority 1998, dated 2004).

What was measured:
[1] = target: T1, human adenosine A1 receptor (Homo sapiens, UniProt P30542); assay: Reporter gene assay (CRE/SPAP) in CHO cells, agonist potency relative to NECA, adenosine A1 receptor; format: cell-based; set-up: key: equipotent concentration ratio, NECA = 1; conditions: ECR = equipotent concentration ratio relative to NECA = 1, inhibition of forskolin-stimulated SPAP production
T1 construct: expressed in transfected cells; host or cells: Chinese hamster ovary (CHO) cells with CRE/SPAP/HYG reporter elements
T1 sequence (P30542 1-326): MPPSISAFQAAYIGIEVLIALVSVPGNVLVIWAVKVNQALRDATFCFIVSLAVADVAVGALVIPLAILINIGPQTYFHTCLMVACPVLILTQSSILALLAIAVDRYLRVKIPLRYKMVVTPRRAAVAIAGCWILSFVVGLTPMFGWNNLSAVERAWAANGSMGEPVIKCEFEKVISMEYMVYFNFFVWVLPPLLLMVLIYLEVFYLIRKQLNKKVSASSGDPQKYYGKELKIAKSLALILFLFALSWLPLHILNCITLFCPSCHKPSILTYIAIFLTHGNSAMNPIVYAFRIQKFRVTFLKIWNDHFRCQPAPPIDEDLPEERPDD
Description: (§1) Reporter Gene Experiments
(§2) Agonist activity was measured in Chinese hamster ovary (CHO) cells containing the CRE/SPAP/HYG (CRE=cyclic AMP response element; HYG=hygromycin resistance; SPAP=secreted placental alkaline phosphatase) reporter gene elements, which upon stimulation of cAMP levels produced SPAP. A cell line was used, which was stably transfected with either the human adenosine A1 receptor or the human adenosine A3 receptor in addition to the above elements. Cells were plated out in 96-well plates in culture medium and incubated at 37° C. for 1 hour. For measurement of potency, agonists were added to the appropriate wells at a concentration range of approximately 10^−10- 10^−5M. 15Min later, cAMP levels were stimulated by addition of a maximal concentration of forskolin. All cells were then incubated for a further 5 hours at 37° C., and cooled to room temperature, after which a substrate for the phosphatase (para-nitrophenol phosphate, pNPP), which is converted by SPAP to a coloured reagent) was then added and the 96-well -plates were read in a plate reader. From these readings, the concentration-dependence of the inhibition by the agonist for forskolin-stimulated SPAP production can be calculated. One of the agonists tested on each 96-well plate was the standard non-selective agonist, N-ethylcarboxamidoadenosine (NECA), and the potency of all test agonists is expressed relative to that of the NECA standard.
(§3) (ECR=equipotent concentration ratio relative to NECA=1)

[2] = target: T2, human adenosine A3 receptor (Homo sapiens, UniProt P0DMS8); assay: Reporter gene assay (CRE/SPAP) in CHO cells, agonist potency relative to NECA, adenosine A3 receptor; format: cell-based; set-up: key: equipotent concentration ratio, NECA = 1; conditions: ECR = equipotent concentration ratio relative to NECA = 1, inhibition of forskolin-stimulated SPAP production
T2 construct: expressed in transfected cells; host or cells: Chinese hamster ovary (CHO) cells with CRE/SPAP/HYG reporter elements
T2 sequence (P0DMS8 1-318): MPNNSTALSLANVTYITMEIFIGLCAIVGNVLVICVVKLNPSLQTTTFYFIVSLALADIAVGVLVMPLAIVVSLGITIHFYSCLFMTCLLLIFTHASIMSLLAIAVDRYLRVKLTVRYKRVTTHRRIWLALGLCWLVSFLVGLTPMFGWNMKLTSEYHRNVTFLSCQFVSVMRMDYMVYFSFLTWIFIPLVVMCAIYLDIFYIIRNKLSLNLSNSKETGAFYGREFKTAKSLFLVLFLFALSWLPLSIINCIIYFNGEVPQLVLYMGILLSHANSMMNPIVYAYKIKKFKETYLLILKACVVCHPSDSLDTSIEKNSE
Description: as §1, §2, §3

Row | SMILES | Adenosine A1 receptor ECR* [1] | Adenosine A3 receptor ECR* [2]
1 | CCOC(=O)N1CCC(Nc2ncnc3c2ncn3[C@@H]2O[C@H](c3nnc(C(C)(C)C)o3)[C@@H](O)[C@H]2O)CC1 [Example 4, 4-{9-[5S-(5-tert-Butyl-[1,3,4]oxadiazol-2-yl)-3R,4S-dihydroxy-tetrahydro-furan-2R-yl]-9H-purin-6-ylamino}-piperidine-1-carboxylic acid ethyl ester] | 5.65 | 152
2 | CC(C)c1noc([C@H]2O[C@@H](n3cnc4c(Nc5ccc(F)c(F)c5)ncnc43)[C@H](O)[C@@H]2O)n1 [Example 56, (2R,3R,4S,5S)-2-[6-(3,4-difluoroanilino)-9H-purin-9-yl]-5-(3-isopropyl-1,2,4-oxadiazol-5-yl)tetrahydrofuran-3,4-diol] | 15.96 | 717.99
3 | CCNS(=O)(=O)CCNc1ncnc2c1ncn2[C@@H]1O[C@H](c2nnc(C(C)(C)C)o2)[C@@H](O)[C@H]1O [Example 123, 2-[(9-{(2R,3 R,4S,5S)-5-[5-(tert-butyl)-1,3,4-oxadiazol-2-yl]-3,4-dihydroxytetrahydrofuran-2-yl}-9H-purin-6-yl)amino]-N-ethylethanesulfonamide] | 4.19 | 325.44

More lines, now with the values ahead:

Row | Adenosine A1 receptor ECR* [1] | Adenosine A3 receptor ECR* [2] | SMILES
4 | 0.42 | 44.7 | CC(C)(C)c1cc([C@H]2O[C@@H](n3cnc4c(NC5CCOCC5)ncnc43)[C@H](O)[C@@H]2O)on1 [Example 28, (2S,3S,4R,5R)-2-(3-tert-Butyl-isoxazol-5-yl)-5-[6-(tetrahydro-pyran-4-ylamino)-purin-9-yl]-tetrahydro-furan-3,4-diol]
5 | 5.15 | 172 | O[C@@H]1[C@H](O)[C@@H](c2nc(C3CC3)no2)O[C@H]1n1cnc2c(N[C@H]3CCC[C@@H]3O)ncnc21 [Example 19, (2S,3S,4R,5R)-2-(3-Cyclopropyl-[1,2,4]oxadiazol-5-yl)-5-[6-(2S-hydroxy-cyclopent-(S)-ylamino)-purin-9-yl]-tetrahydro-furan-3,4-diol]
